{"source": "patent US7332489B2", "about": "“Methods and compositions of novel triazine compounds” (Reddy US Therapeutics, Inc., priority 2003, dated 2008)", "key": {"[1]": {"tested_on": "TNF-α induced IL-6", "assay": "TNF-α-induced IL-6 production determined by IL-6 ELISA", "assay_type": "cell-based", "details": "for % IL6 production compare to TNF stimulation of IL6 (100%), @ 5 uM: HAEC, 5 uM compound, TNF stimulation = 100%; for activity at 10 µM: Homo sapiens, 24 h", "outline": "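Human aortic endothelial cells grown to ≥90% confluence, then treated with compounds and stimuli in serum-free medium with 0.2% albumin. Secreted IL-6 in collected media measured by sandwich ELISA (2 ug/ml capture, 200 ng/ml biotinylated detection antibody, streptavidin-HRP), read at 450 nm.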"}, "[2]": {"tested_on": "cells", "assay": "Cytotoxicity/Lactate Dehydrogenase assay", "assay_type": "cell-based", "details": "toxic or cause cell death; concentrations (uM) given", "protocol": "An appropriate number of cells are plated in four 96-well plates, one plate for “day 0” and three plates for days 1-3. Cells are treated with at least one compound of the present invention in varying concentrations with and without the apoptosis inducer cisplatin (2 μM) (“+cis” or “-cis”). Unteated cells are also assayed with and without cisplatin. After transfection, the plates are incubated at 37° C. overnight.\nAn appropriate number of cells are plated in four 96-well plates, one plate for “day 0” and three plates for days 1-3. Cells are treated with at least one compound of the present invention in varying concentrations. The negative control cells have normal media conditions, a duplicate set of wells is treated with the composition in which the compound is provided, but there is no added compound and the positive control cells are treated with the apoptosis inducer cisplatin (2 μM). All of the cells are transfected with a vector having a promoter that is responsive to apoptosis conditions. When apoptosis occurs, the promoter is turned on and the lactic dehydrogenase gene is activated and the enzyme protein is made and active. Activity is easily detected with a color change. After transfection, the plates are incubated at 37° C. overnight.\nAbout 8 mls of warmed alpha MEM LDH lysis buffer (2% Triton X100) and about 8 mls of culture media (1/2 dilution) are combined. Two 96-well v-bottom plates are prepared, one labeled “lysis” and one labeled “supernatant.” To lyse the cells, about 200 μl Alpha MEM lysis buffer (diluted 1/2) is added to one test plate from which the supernatant has been removed and added to the plate labeled supernatant. After mixing, about 200 μl of lysed cells are transferred to the lysis plate. Both the lysis and supernatant plates are centrifuged at about 1600 rpm for about 10 min. After centrifugation, about 100 μl of both the supernatant or lysate is transferred to corresponding 96-well flat-bottomed plates.\nThe assay for cytotoxicity uses the Cytotoxicity Detection Kit (LDH) from Roche Diagnostics Corp. (Indianapolis, Ind.). Using the directions provided, the dye solution is mixed and added each well of the lysate and supernatant plate and incubated for up to 20-25 min at 15-25° C. in the dark."}, "[3]": {"details": "read-out: Inhibition of TNF-induced IL6 production"}, "[4]": {"details": "Table 5, second part, column 1, class = % of control IL6 production, read-out: Inhibition of TNF-induced IL6, production"}}, "note": "Read-outs that look alike come from different tables or passages of the source."}
{"smiles": "COc1ccc(Nc2nc(Nc3ccc(OC)c(Cl)c3)nc(NC3CCCCCC3)n2)cc1Cl", "note": "[Compound 122, N,N′-Bis-(3-chloro-4-methoxy-phenyl)-N″-cycloheptyl-[1,3,5]triazine-2,4,6-triamine]", "values": [{"measurement": "melting point", "result": 183, "unit": "°C"}]}
{"smiles": "COc1ccc(Nc2nc(NC(C)C)nc(N(C)C3CCNCC3)n2)cc1Cl", "note": "[Compound 107, N^2-(3-chloro-4-methoxy-phenyl)-N^4-isopropyl-N^6-methyl-N^6-piperidin-4-yl-1,3,5-triazine-2,4,6-triamine]", "values": [{"measurement": "% IL6 production compare to TNF stimulation of IL6 (100%), @ 5 uM", "setting": "[1]", "result": "60 @ 5 uM %"}, {"measurement": "activity at 10 µM", "setting": "[1]; [3]", "result": "50 to 75", "unit": "%"}, {"measurement": "melting point", "result": 129, "unit": "°C"}]}
{"smiles": "COc1ccc(Nc2nc(NC3CCCCCC3)nc(OC(C)C)n2)cc1Cl", "note": "[Compound E21, N^2-(3-chloro-4-methoxyphenyl)-N^4-cycloheptyl-6-isopropoxy-1,3,5-triazine-2,4-diamine]", "values": [{"measurement": "melting point", "result": "136 to 138", "unit": "°C"}]}
{"smiles": "CCN1CCCC1CNc1nc(Nc2ccc(OC)c(F)c2)nc(OCC2CCCCC2)n1", "note": "(centres unmarked) [Compound 116, 6-Cyclohexylmethoxy-N-(1-ethyl-pyrrolidin-2-ylmethyl)-N′-(3-fluoro-4-methoxy-phenyl)-[1,3,5]triazine-2,4-diamine]", "values": [{"measurement": "melting point", "result": 59, "unit": "°C"}]}
{"smiles": "COc1ccc(Nc2nc(O)nc(NC3CCCCCC3)n2)cc1Cl", "note": "[Compound 147, 4-(3-Chloro-4-methoxy-phenylamino)-6-cycloheptylamino-1,3,5-triazin-2-ol]", "values": [{"measurement": "melting point", "result": "> 310", "unit": "°C"}]}
{"smiles": "CCN1CCCC1CNc1nc(Nc2cnc3ccccc3c2)nc(NC2CCCCCC2)n1", "note": "(centres unmarked) [Compound 3, N^2-cycloheptyl-N^4-[(1-ethyl-2-pyrrolidinyl)methyl]-N^6-(3-quinolinyl)-1,3,5-triazine-2,4,6-triamine]", "values": [{"measurement": "Toxicity", "setting": "[2]", "result": "toxic"}, {"measurement": "activity at 10 µM", "setting": "[1]; [4]", "result": "0 to 25", "unit": "%"}]}
{"smiles": "CCCCN(CCC)c1nc(Nc2ccc(OC)c(Cl)c2)nc(N(C)C2CCN(C)CC2)n1", "note": "[Compound 111, N-Butyl-N′-(3-chloro-4-methoxy-phenyl)-N″-methyl-N″-(1-methyl-piperidin-4-yl)-N-propyl-[1,3,5]triazine-2,4,6-triamine]", "values": [{"measurement": "Toxicity", "setting": "[2]", "result": "Toxic by eye at 50and 10 uM noblunt/round justdeath"}, {"measurement": "% IL6 production compare to TNF stimulation of IL6 (100%), @ 5 uM", "setting": "[1]", "result": 46, "unit": "%"}, {"measurement": "activity at 10 µM", "setting": "[1]; read-out: % IL6 production compare to TNF stimulation of IL6 (100%), Compds tested @ 10 uM HAEC, IL6", "result": "> 90", "unit": "%"}, {"measurement": "activity at 10 µM", "setting": "[1]; [3]", "result": "75 to 100", "unit": "%"}]}
{"smiles": "COc1ccc(Nc2nc(NC3CCCCCC3)nc(OCC3CCCN3)n2)cc1Cl", "note": "(centres unmarked) [Compound E22, N^2-(3-chloro-4-methoxyphenyl)-N^4-cycloheptyl-6-(2-azolanylmethoxy)-1,3,5-triazine-2,4-diamine]", "values": [{"measurement": "melting point", "result": "84 to 86", "unit": "°C"}]}
{"smiles": "COc1ccc(Nc2nc(Nc3ccc(OC)c(F)c3)nc(OCC3CCCCC3)n2)cc1F", "note": "[Compound 115, 6-Cyclohexylmethoxy-N,N′-bis-(3-fluoro-4-methoxy-phenyl)-1,3,5-triazine-2,4-diamine]", "values": [{"measurement": "melting point", "result": 181, "unit": "°C"}]}
{"smiles": "COc1ccc(Nc2nc(NC3CCCCCC3)nc(N(C)C3CCNCC3)n2)cc1Cl", "note": "[Compound 146, N^2-(3-chloro-4-methoxy-phenyl)-N^4-cycloheptyl-N^6-methyl-N^6-piperidin-4-yl-1,3,5-triazine-2,4,6-triamine]", "values": [{"measurement": "melting point", "result": "114 to 116", "unit": "°C"}]}
{"smiles": "COc1ccc(Nc2nc(NN3CCCCCC3)nc(N(C)C3CCNCC3)n2)cc1Cl", "values": [{"measurement": "melting point", "result": 81, "unit": "°C"}]}
{"smiles": "COc1ccc(Nc2nc(Cl)nc(OCC3CCCCC3)n2)cc1F", "note": "[Compound 114, (4-Chloro-6-cyclohexylmethoxy-[1,3,5]triazin-2-yl)-(3-fluoro-4-methoxy-phenyl)-amine]", "values": [{"measurement": "melting point", "result": 98, "unit": "°C"}]}
{"smiles": "COc1ccc(Nc2nc(Cl)nc(Cl)n2)cc1F", "note": "[Compound 124, (4,6-Dichloro-[1,3,5]triazin-2-yl)-(3-fluoro-4-methoxy-phenyl)-amine]", "values": [{"measurement": "melting point", "result": 134, "unit": "°C"}]}
{"smiles": "COc1ccc(Nc2nc(Cl)nc(NCC3CCCCC3)n2)cc1F", "note": "[Compound 125, 6-Chloro-N-cyclohexylmethyl-N′-(3-fluoro-4-methoxy-phenyl)-[1,3,5]triazine-2,4-diamine]", "values": [{"measurement": "melting point", "result": 156, "unit": "°C"}]}
{"smiles": "CCN1CCCC1CNc1nc(Nc2ccc(F)c(F)c2)nc(NC2CCCCCC2)n1", "note": "(centres unmarked) [Compound 8, N^2-cycloheptyl-N^4-(3,4-difluorophenyl)-N^6-[(1-ethyl-2-pyrrolidinyl)methyl]-1,3,5-triazine-2,4,6-triamine]", "values": [{"measurement": "Toxicity", "setting": "[2]", "result": "toxic"}]}
{"smiles": "COc1ccc(Nc2nc(NCCN(C)C)nc(NC3CCCCCC3)n2)cc1F", "note": "[Compound 93, N^2-cycloheptyl-N^4-[2-(dimethylamino)ethyl]-N^6-(3-fluoro-4-methoxyphenyl)-1,3,5-triazine-2,4,6-triamine]", "values": [{"measurement": "Toxicity", "setting": "[2]", "result": "toxic"}, {"measurement": "activity at 10 µM", "setting": "[1]; Table 5, first part, class = % of control IL6 production, read-out: Inhibition of TNF-induced IL6 production", "result": "0 to 25", "unit": "%"}, {"measurement": "activity at 10 µM", "setting": "[1]; [4]", "result": "0 to 25", "unit": "%"}]}
{"smiles": "CCN1CCCC1CNc1nc(Nc2ccc(OC)c(F)c2)nc(NC2CCCCCCC2)n1", "note": "(centres unmarked) [Compound 54, N^2-cyclooctyl-N^4-[(1-ethyl-2-pyrrolidinyl)methyl]-N^6-(3-fluoro-4-methoxyphenyl)-1,3,5-triazine-2,4,6-triamine]", "values": [{"measurement": "Toxicity", "setting": "[2]", "result": "toxic"}]}
{"smiles": "COc1ccc(Nc2nc(Nc3ccc(OC)c(Cl)c3)nc(OCC3CCCCC3)n2)cc1Cl", "note": "[Compound 118, N,N′-Bis-(3-chloro-4-methoxy-phenyl)-6-cyclohexylmethoxy-1,3,5-triazine-2,4-diamine]", "values": [{"measurement": "melting point", "result": 188, "unit": "°C"}]}
{"smiles": "COc1ccc(Nc2nc(NC3CCCCCC3)nc(OC3CCCN(C(C)=O)C3)n2)cc1Cl", "note": "(centres unmarked) [Compound E20, 1-[3-{4-(3-chloro-4-methoxyanilino)-6-cycloheptylamino-1,3,5-triazine-2-yloxy}piperidino]-1-ethanone]", "values": [{"measurement": "melting point", "result": "138 to 140", "unit": "°C"}]}
{"smiles": "CCN1CCCC1CNc1nc(Nc2ccc(OC)c(F)c2)nc(N2CCCC3CCCCC32)n1", "note": "(centres unmarked) [Compound 59, N^2-[(1-ethyl-2-pyrrolidinyl)methyl]-N^4-(3-fluoro-4-methoxyphenyl)-N^6-octahydro-1(2H)-quinolinyl-1,3,5-triazine-2,4-diamine]", "values": [{"measurement": "Toxicity", "setting": "[2]", "result": "toxic"}]}
{"smiles": "COc1ccc(Nc2nc(NC3CCCCCC3)nc(Oc3ccccc3F)n2)cc1Cl", "note": "[Compound E28, N^2-(3-chloro-4-methoxyphenyl)-N^4-cycloheptyl-6-(2-fluorophenoxy)-1,3,5-triazine-4,2-diamine]", "values": [{"measurement": "melting point", "result": "98 to 100", "unit": "°C"}]}
{"smiles": "COc1ccc(Nc2nc(NC3CCCCCC3)nc(N3CCSCC3)n2)cc1Cl", "values": [{"measurement": "melting point", "result": "78 to 80", "unit": "°C"}]}
{"smiles": "CCN1CCCC1CNc1nc(Nc2cccc(F)c2)nc(NC2CCCCCC2)n1", "note": "(centres unmarked) [Compound 16, N^2-cycloheptyl-N^4-[(1-ethyl-2-pyrrolidinyl)methyl]-N^6-(3-fluorophenyl)-1,3,5-triazine-2,4,6-triamine]", "values": [{"measurement": "Toxicity", "setting": "[2]", "result": "toxic"}]}
{"smiles": "CCN1CCCC1CNc1nc(Nc2ccc(Cl)cc2)nc(NC2CCCCCC2)n1", "note": "(centres unmarked) [Compound 12, N^2-(4-chlorophenyl)-N^4-cycloheptyl-N^6-[(1-ethyl-2-pyrrolidinyl)methyl]-1,3,5-triazine-2,4,6-triamine]", "values": [{"measurement": "Toxicity", "setting": "[2]", "result": "toxic"}]}
{"smiles": "CCN1CCCC1CNc1nc(NCC2CCCCC2)nc(Nc2ccc(OC)c(F)c2)n1", "note": "(centres unmarked) [Compound 126, N-Cyclohexylmethyl-N′-(1-ethyl-pyrrolidin-2-ylmethyl)-N″-(3-fluoro-4-methoxy-phenyl)-[1,3,5]triazine-2,4,6-triamine]", "values": [{"measurement": "melting point", "result": 72, "unit": "°C"}]}
{"smiles": "CCN1CCCC1CNc1nc(Nc2ccccc2Br)nc(NC2CCCCCC2)n1", "note": "(centres unmarked) [Compound 22, N^2-(2-bromophenyl)-N^4-cycloheptyl-N^6-[(1-ethyl-2-pyrrolidinyl)methyl]-1,3,5-triazine-2,4,6-triamine]", "values": [{"measurement": "Toxicity", "setting": "[2]", "result": "toxic"}]}
{"smiles": "COc1ccc(Nc2nc(Cl)nc(OCC3CCCCC3)n2)cc1Cl", "note": "[Compound 117, (4-Chloro-6-cyclohexylmethoxy-[1,3,5]triazin-2-yl)-(3-chloro-4-methoxy-phenyl)-amine]", "values": [{"measurement": "melting point", "result": 114, "unit": "°C"}]}
